≈ marks a conversion by molar mass, not a printed value. Peptide text beside a SMILES is read from it.
Key:
[1] = tested on: Acinetobacter baumannii KCTC 1017; format: cell-based
From the text: (§1) To compare the antimicrobial activity of the peptides prepared in <Example 1>, the minimum inhibitory concentration (MIC), […] measured. Here, the minimal inhibitory concentration (MIC) refers to the lowest concentration of a substance that prevents visible bacterial growth.
(§2) Specifically, the bacterial strains listed in Table 2 below were obtained and cultured in media suitable for each strain until the mid-log phase. The cultures were then diluted to a concentration of 2×10^4 cells/100 μL and prepared in microtiter plates (Nunc, USA). Subsequently, serial 2-fold dilutions of the peptides prepared in Example 1 were prepared, and 10 μL of each dilution was added to the wells, and the plates were incubated at 37° C. for 18 hours. Absorbance at 600 nm was measured using a microtiter plate reader (Merck ELISA reader, Germany) to determine the MIC values for each bacterial strain. The parent peptide dCATH was used as a control.

[2] = tested on: Bacillus cereus KCTC 2508; format: cell-based
From the text: as §1, §2

[3] = tested on: Escherichia coli ATCC 25922; format: cell-based
From the text: as §1, §2

[4] = tested on: Listeria monocytogenes KCTC 3710; format: cell-based
From the text: as §1, §2

[5] = tested on: Pseudomonas aeruginosa ATCC 27853; format: cell-based
From the text: as §1, §2

[6] = tested on: Staphylococcus aureus ATCC 25923; format: cell-based
From the text: as §1, §2

[7] = tested on: Acinetobacter baumannii_isolate 12 (antibiotic-resistant); format: cell-based, Acinetobacter baumannii; conditions: isolate 12 (antibiotic-resistant)
From the text: as §1, §2

[8] = tested on: Acinetobacter baumannii_isolate 13 (antibiotic-resistant); format: cell-based, Acinetobacter baumannii; conditions: isolate 13 (antibiotic-resistant)
From the text: as §1, §2

[9] = tested on: Acinetobacter baumannii_isolate 14 (antibiotic-resistant); format: cell-based, Acinetobacter baumannii; conditions: isolate 14 (antibiotic-resistant)
From the text: as §1, §2

[10] = tested on: Acinetobacter baumannii_isolate 17 (antibiotic-resistant); format: cell-based, Acinetobacter baumannii; conditions: isolate 17 (antibiotic-resistant)
From the text: as §1, §2

[11] = tested on: Acinetobacter baumannii_isolate 18 (antibiotic-resistant); format: cell-based, Acinetobacter baumannii; conditions: isolate 18 (antibiotic-resistant)
From the text: as §1, §2

[12] = tested on: Acinetobacter baumannii_isolate 2 (antibiotic-resistant); format: cell-based, Acinetobacter baumannii; conditions: isolate 2 (antibiotic-resistant)
From the text: as §1, §2

[13] = tested on: Acinetobacter baumannii_isolate 24 (antibiotic-resistant); format: cell-based, Acinetobacter baumannii; conditions: isolate 24 (antibiotic-resistant)
From the text: as §1, §2

[14] = tested on: Acinetobacter baumannii_isolate 3 (antibiotic-resistant); format: cell-based, Acinetobacter baumannii; conditions: isolate 3 (antibiotic-resistant)
From the text: as §1, §2

[15] = tested on: Acinetobacter baumannii_isolate 5 (antibiotic-resistant); format: cell-based, Acinetobacter baumannii; conditions: isolate 5 (antibiotic-resistant)
From the text: as §1, §2

[16] = tested on: Acinetobacter baumannii_isolate 6 (antibiotic-resistant); format: cell-based, Acinetobacter baumannii; conditions: isolate 6 (antibiotic-resistant)
From the text: as §1, §2

[17] = tested on: Acinetobacter baumannii_isolate 7 (antibiotic-resistant); format: cell-based, Acinetobacter baumannii; conditions: isolate 7 (antibiotic-resistant)
From the text: as §1, §2

[18] = tested on: Acinetobacter baumannii_isolate 9 (antibiotic-resistant); format: cell-based, Acinetobacter baumannii; conditions: isolate 9 (antibiotic-resistant)
From the text: as §1, §2

[19] = tested on: Acinetobacter baumannii_isolate15 (antibiotic-resistant); format: cell-based, Acinetobacter baumannii; conditions: isolate15 (antibiotic-resistant)
From the text: as §1, §2

[20] = tested on: Acinetobacter baumannii_isolate21 (antibiotic-resistant); format: cell-based, Acinetobacter baumannii; conditions: isolate21 (antibiotic-resistant)
From the text: as §1, §2

[21] = tested on: Acinetobacter baumannii KCTC 2508; format: cell-based; conditions: KCTC 2508, 24 h
Procedure: Specifically, among the bacterial strains listed in Table 2, those known to form biofilms well (Acinetobacter baumannii KCTC 2508, Acinetobacter baumannii isolate 10, and isolate 14) were cultured in the appropriate media to the mid-log phase and diluted to a cell concentration of 5×10^4 cells/100 µL, followed by inoculation into microplates (SPL). Subsequently, the peptides prepared in <Example 1> were serially 10-fold diluted with 10 mM sodium phosphate buffer (pH 7.2), and 10 μL of each dilution was added to each well. The plates were then incubated at 37° C. for 24 hours. After completely removing the supernatant, the plates were fixed with 100% methanol for 15 minutes, stained with crystal violet staining solution for 1 hour, washed three times, and then the stain was solubilized with 95% ethanol. Absorbance was measured at 595 nm using a microplate reader to determine the MBIC values for each bacterial strain.

in vitro = format: cell-based; conditions: human, HaCaT keratinocyte cells, Cell Viability
Procedure: To evaluate the cytotoxicity of the peptides prepared in <Example 1>, toxicity was measured using a human keratinocyte cell line (HaCaT cell line, Dr. N. E. Fusenig, Heidelberg, Germany).
Specifically, HaCaT cells cultured in DMEM medium containing 10% fetal bovine serum (FBS) were seeded at a density of 2×10^5 cells/well into a microtiter plate and incubated for 24 hours. Then, peptides dCATH, dCATH-A1, dCATH-A2, dCATH-A3, dCATH-A4, dCATH-A5, dCATH-A6, and dCATH-A7 were added to each well at concentrations of 3.13, 6.25, 12.5, 25.0, 50.0, and 100.0 μM/well, followed by incubation for 24 hours in a 5% CO2 incubator. After 24 hours, 100 μL of a reaction solution containing 0.5 mg/mL MTT (Thiazolyl Blue Tetrazolium Bromide) dissolved in phosphate-buffered saline (PBS) was added to each well and reacted for 4 hours. After removing the supernatant, 200 μL of DMSO (dimethyl sulfoxide) was added to dissolve the formed MTT crystals, and absorbance at 570 nm was measured to determine cell viability.

CC[C@H](C)[C@H](NC(=O)[C@H](C)NC(=O)[C@H](CCCCN)NC(=O)[C@H](CCCCN)NC(=O)[C@@H](NC(=O)[C@H](CC(C)C)NC(=O)[C@H](CCC(N)=O)NC(=O)[C@H](C)NC(=O)[C@H](C)NC(=O)[C@H](CCCNC(=N)N)NC(=O)[C@@H](N)CCCCN)C(C)C)C(=O)N[C@@H](CCCCN)C(=O)N[C@@H](CCCCN)C(=O)N[C@@H](Cc1ccc(O)cc1)C(=O)N[C@@H](CCCNC(=N)N)C(=O)N[C@@H](C)C(=O)N[C@@H](Cc1c[nH]c2ccccc12)C(=O)N[C@@H](CCCCN)C(N)=O [dCATH-A7, KRAAQLVKKAIKKYRAWK] (H-KRAAQLVKKAIKKYRAWK-NH2; N-terminus assumed)
MIC ([1]; KCTC 1017): 1 µM (≈ 2.19 µg/mL) | antimicrobial activity compared to the control peptide dCATH ([1]; against Acinetobacter baumannii): significantly superior antimicrobial activity | MIC [2]: 1 µM (≈ 2.19 µg/mL) | MIC [3]: 4 µM (≈ 8.74 µg/mL) | MIC [4]: 4 µM (≈ 8.74 µg/mL) | MIC [5]: 8 µM (≈ 17.5 µg/mL) | MIC ([6]; ATCC 25923): 0.5 µM (≈ 1.09 µg/mL) | antimicrobial activity compared to the control peptide dCATH ([6]; against Staphylococcus aureus strains): notably superior activity | MIC [7]: 1 µM (≈ 2.19 µg/mL) | MIC [8]: 1 µM (≈ 2.19 µg/mL) | MIC [9]: 1 µM (≈ 2.19 µg/mL) | MIC [10]: 1 µM (≈ 2.19 µg/mL) | MIC [11]: 1 µM (≈ 2.19 µg/mL) | MIC [12]: 1 µM (≈ 2.19 µg/mL) | MIC [13]: 1 µM (≈ 2.19 µg/mL) | MIC [14]: 1 µM (≈ 2.19 µg/mL) | MIC [15]: 1 µM (≈ 2.19 µg/mL) | MIC [16]: 1 µM (≈ 2.19 µg/mL) | MIC [17]: 1 µM (≈ 2.19 µg/mL) | MIC [18]: 1 µM (≈ 2.19 µg/mL) | MIC [19]: 1 µM (≈ 2.19 µg/mL) | MIC [20]: 1 µM (≈ 2.19 µg/mL) | MBIC [21]: 2 µM | viability at 24 h, 3.13 µM (in vitro): 98% | viability at 24 h, 6.25 µM (in vitro): 99.2% | viability at 24 h, 12.5 µM (in vitro): 100% | viability at 24 h, 25 µM (in vitro): 100% | viability at 24 h, 50 µM (in vitro): 100% | viability at 24 h, 100 µM (in vitro): 98.4%
